Assay results reported in US7662404B2, “Transdermal delivery system for dried particulate or lyophilized peptides and polypeptides” (TransPharma Medical Ltd., priority 2002, dated 2010).
Values joined by “and” are separate entries in the source; they are usually repeats but may differ in a detail not shown here. Equal values may be shown once. Read-outs that look alike come from different tables or passages of the source.

Experiments:
Format in all cases: in vivo
[1] = Plasma hPTH (1-34) from different printed patch formulations in pigs (Example 12)
Method: The experiment was performed as follows: Group 1: Each pig underwent two ViaDerm applications (150 micro-channels/cm^2) on one site on the back. A 100 μg hPTH (1-34) printed patch was placed over the application area and covered with Tegaderm. Total delivery area=1.4 cm (total 3 pigs). Formulation: hPTH (1-34) in water for injection (WFI), pH=6. Group 2: Each pig underwent two ViaDerm applications (150 micro-channels/cm^2) on one site on the back. A 100 μg hPTH (1-34) printed patch was placed over the application area and covered with Tegaderm. Total delivery area=1.4 cm^2 (total 3 pigs). Formulation: hPTH (1-34): Sucrose (1:5.5) in 0.72% acetic acid, pH=4. Group 3: Each pig underwent two ViaDerm applications (150 micro-channels/cm^2) on one site on the back. A 100 μg hPTH (1-34) printed patch was placed over the application area and covered with Tegaderm. Total delivery area=1.4 cm^2 (total 3 pigs). Formulation: hPTH (1-34): Trehalose (1:11) in 0.4% citric acid, pH=4. Group 4: Each pig was injected SC with 0.2 ml (20 μg) of hPTH (1-34) diluted to a 100 μg/ml solution with saline (total 3 pigs).

[2] = Plasma hPTH (1-34) after SC injection or printed patches (water) with ViaDerm in pigs (Example 11); conditions: for bioavailability: read-out: % bioavailability cf. to S.C.
Method: Pigs (males, 10-12 kg, Large white) were treated as follows:
Group 1: 10 μg of hPTH (1-34) were injected subcutaneously (S.C.; total 3 pigs)
[…] Printed patches containing 50 μg hPTH (1-34) were placed over the treated area and covered with Tegaderm (3M Health Care, St. Paul, Minn.). Total delivery area=1.4 cm (total 3 pigs).
(§1) […] Printed patches containing 100 μg hPTH (1-34) were placed over the treated area and covered with Tegaderm. Total delivery area=1.4 cm (total 3 pigs).
as §1
hPTH (1-34) was dissolved in water and then printed on the patches. hPTH (1-34) concentrations in pig plasma were measured by an ELISA kit (Immutopics, San Clemente, Calif., USA).

[3] = Plasma hPTH (1-34) in female adult healthy human volunteers, ViaDerm and printed patches or SC (Example 13); design: AUC (individual subjects): unit not given here; conditions: for Cmax (individual subjects): women; for Cmax (individual subjects) / AUC (individual subjects) / AUC: 12 h; for AUC / Tmax / Cmax: female, human, plasma
Method: Transdermal drug delivery study of hPTH (1-34) in four female adult healthy human volunteers was performed using ViaDerm and printed patches.
To evaluate the transdermal delivery of hPTH (1-34), printed patches containing 100 μg or 200 μg hPTH (1-34) (FORTEO®, Teriparatide purchased from Ely Lilly, Indianapolis, Ind., USA) were prepared. Patch area was 1.44 cm^2.
ViaDerm parameters: electrode array of 75 or 100 micro-channels/cm^2; ViaDerm was applied two or three times generating micro-channels at a density of 150 or 300 micro-channels/cm^2; Voltage: 290 volts, constant voltage; Burst length: 5000 μsec; Maximal current: 50 mA.
Each female adult received five treatments of hPTH (1-34) with a minimum of 2 day clearance between treatments. The treatments were as follows: • 1. Three ViaDerm applications (final density of 300 micro-channels/cm^2) on one site of the upper arm. Two printed patches, each containing 100 μg hPTH (1-34), were placed over the application area (each for 6 hours). • 2. Two ViaDerm applications (final density of 150 micro-channels/cm^2) on one site of the upper arm. Two printed patches, each containing 200 μg hPTH (1-34), were placed over the application area. • 3. Three ViaDerm applications (final density of 300 micro-channels/cm^2) on one site of the upper arm. Two printed patches, each containing 200 μg hPTH (1-34), were placed over the application area. • 4. Subcutaneous (SC) injection of 20 μg hPTH (1-34) (FORTEO®, Teriparatide was purchased from Ely Lilly, Indianapolis, Ind., USA). • 5. SC injection of 60 μg hPTH (1-34) (FORTEO®).
Plasma hPTH (1-34), calcium ions and phosphate ions were determined by Eliza using commercial kits.

Amount delivered ([1]; S.C. 20 ug): 20 µg | % bio ([1]; S.C. 20 ug (reference)): 100% | AUC ([1]; pig, plasma, sc, S.C. 20 ug): 1.16 ± 0.761 ng·h/mL | Cmax ([1]; pig, plasma, sc, S.C. 20 ug, neck): 1.08 ng/mL | Amount delivered ([2]; S.C. 10 μg): 10 µg | AUC ([2]; male, Large white, pig, plasma, other: transdermal printed patch on ViaDerm-treated skin, 50 ug, printed patch 50 μg): 0.46 ng·h/mL | Cmax ([2]; male, Large white, pig, plasma, other: transdermal printed patch on ViaDerm-treated skin, 50 ug, printed patch 50 μg (water), ViaDerm, back, read-out: Cmax): ~0.15 ng/mL | AUC ([2]; male, Large white, pig, plasma, other: transdermal printed patch on ViaDerm-treated skin, 100 ug, patch 100 μg): 0.919 ng·h/mL | Cmax ([2]; male, Large white, pig, plasma, other: transdermal printed patch on ViaDerm-treated skin, 100 ug, printed patch 100 μg (water), ViaDerm, back, read-out: Cmax): 0.32 ng/mL | AUC ([2]; male, Large white, pig, plasma, other: transdermal printed patch on ViaDerm-treated skin, 200 ug, patch 200 μg): 1.6 ng·h/mL | Cmax ([2]; male, Large white, pig, plasma, other: transdermal printed patch on ViaDerm-treated skin, 200 ug, printed patch 200 μg (water), ViaDerm, back, read-out: Cmax): ~0.32 ng/mL | AUC ([2]; male, Large white, pig, plasma, sc, 10 ug, S.C. 10 μg): 0.365 ng·h/mL | bioavailability ([2]; male, Large white, pig, plasma, sc, 10 ug, S.C. 10 μg (reference)): 100% | Cmax ([2]; male, Large white, pig, plasma, sc, 10 ug, S.C. 10 μg, neck, read-out: Cmax): 0.374 ng/mL | bioavailability ([2]; male, Large white, pig, plasma, sc, 50 ug, printed patch 50 μg): 25.2% | bioavailability ([2]; male, Large white, pig, plasma, sc, 100 ug, patch 100 μg): 25.2% | bioavailability ([2]; male, Large white, pig, plasma, sc, 200 ug, patch 200 μg): 21.9% | Amount delivered ([2]; patch 100 μg): 225.18 µg | Amount delivered ([2]; patch 200 μg): 43.84 µg | Amount delivered ([2]; printed patch 50 μg): 12.6 µg | Cmax ([2]; printed patch 50 μg (water), ViaDerm, back): 0.136 ng/mL | Cmax ([2]; printed patch 200 μg (water), ViaDerm, back): 0.317 ng/mL | AUC (individual subjects) ([3]; T-1: 300 micro-channels/cm^2, 2 printed patches each 100 μg): 346 and 1340 and 1097 and 1067 | Cmax AVG ([3]; T-1: 300 micro-channels/cm^2, 2 printed patches each 100 μg, mean of 4 women): 0.330918 ng/mL | AUC (individual subjects) ([3]; T-2: 150 micro-channels/cm^2, 2 printed patches each 200 μg): 398 and 1498 and 3743 and 2128 | Cmax AVG ([3]; T-2: 150 micro-channels/cm^2, 2 printed patches each 200 μg, mean of 4 women): 0.642299 ng/mL | AUC (individual subjects) ([3]; T-3: 300 micro-channels/cm^2, 2 printed patches each 200 μg): 886 and 1251 and 4649 and 1327 | Cmax AVG ([3]; T-3: 300 micro-channels/cm^2, 2 printed patches each 200 μg, mean of 4 women): 0.651347 ng/mL | Tmax (individual subjects) ([3]; T-4: SC injection of 20 μg): 6.0 h and 0.3 h and 0.5 h | AUC (individual subjects) ([3]; T-4: SC injection of 20 μg): 172 and 158 and 176 | Cmax AVG ([3]; T-4: SC injection of 20 μg, mean of 4 women): 0.029291 ng/mL | Tmax (individual subjects) ([3]; T-5: SC injection of 60 μg): 0.5 h | AUC (individual subjects) ([3]; T-5: SC injection of 60 μg): 84 and 100 and 474 and 399 | Cmax AVG ([3]; T-5: SC injection of 60 μg, mean of 4 women): 0.111514 ng/mL | AUC ([3]; 100 ug, T-1: 300 micro-channels/cm^2, 2 printed patches each 100 μg, mean of 4 women, read-out: AUC AVG): 0.963 ng·h/mL | Tmax ([3]; 100 ug, T-1: 300 micro-channels/cm^2, 2 printed patches each 100 μg, read-out: Tmax (individual subjects)): 1 h | Cmax ([3]; other: transdermal printed patch on ViaDerm-treated skin, 100 ug, T-1: 300 micro-channels/cm^2, 2 printed patches each 100 μg, mean of 4 women): 0.331 ng/mL | Tmax ([3]; other: transdermal printed patch on ViaDerm-treated skin, 100 ug, T-1: 300 micro-channels/cm^2, 2 printed patches each 100 μg, mean of 4 women, read-out: Tmax AVG): 1.5 h | AUC ([3]; other: transdermal printed patch on ViaDerm-treated skin, 200 ug, T-2: 150 micro-channels/cm^2, 2 printed patches each 200 μg, mean of 4 women, read-out: AUC AVG): 1.94 ng·h/mL | Cmax ([3]; other: transdermal printed patch on ViaDerm-treated skin, 200 ug, T-2: 150 micro-channels/cm^2, 2 printed patches each 200 μg, mean of 4 women): 0.642 ng/mL | Tmax ([3]; other: transdermal printed patch on ViaDerm-treated skin, 200 ug, T-2: 150 micro-channels/cm^2, 2 printed patches each 200 μg, mean of 4 women, read-out: Tmax AVG): 2.1 h | Tmax ([3]; other: transdermal printed patch on ViaDerm-treated skin, 200 ug, T-2: 150 micro-channels/cm^2, 2 printed patches each 200 μg, read-out: Tmax (individual subjects)): 1.5 h | AUC ([3]; other: transdermal printed patch on ViaDerm-treated skin, 200 ug, T-3: 300 micro-channels/cm^2, 2 printed patches each 200 μg, mean of 4 women, read-out: AUC AVG): 2.03 ng·h/mL | Cmax ([3]; other: transdermal printed patch on ViaDerm-treated skin, 200 ug, T-3: 300 micro-channels/cm^2, 2 printed patches each 200 μg, mean of 4 women): 0.651 ng/mL | Tmax ([3]; other: transdermal printed patch on ViaDerm-treated skin, 200 ug, T-3: 300 micro-channels/cm^2, 2 printed patches each 200 μg, mean of 4 women, read-out: Tmax AVG): 2 h | Tmax ([3]; other: transdermal printed patch on ViaDerm-treated skin, 200 ug, T-3: 300 micro-channels/cm^2, 2 printed patches each 200 μg, read-out: Tmax (individual subjects)): 2.5 h | AUC ([3]; sc, 20 ug, T-4: SC injection of 20 μg, mean of 4 women, read-out: AUC AVG): 0.152 ng·h/mL | AUC ([3]; sc, 20 ug, T-4: SC injection of 20 μg, read-out: AUC (individual subjects)): 0.103 ng·h/mL | Cmax ([3]; sc, 20 ug, T-4: SC injection of 20 μg, mean of 4 women): 0.022 ng/mL | Tmax ([3]; sc, 20 ug, T-4: SC injection of 20 μg, mean of 4 women, read-out: Tmax AVG): 1.8 h | AUC ([3]; sc, 60 ug, T-5: SC injection of 60 μg, mean of 4 women, read-out: AUC AVG): 0.264 ng·h/mL | Cmax ([3]; sc, 60 ug, T-5: SC injection of 60 μg, mean of 4 women): 0.115 ng/mL | Tmax ([3]; sc, 60 ug, T-5: SC injection of 60 μg, mean of 4 women, read-out: Tmax AVG): 0.8 h | Tmax ([3]; sc, 60 ug, T-5: SC injection of 60 μg, read-out: Tmax (individual subjects)): 1 h
Compound: CC[C@H](C)[C@H](NC(=O)[C@H](CCC(=O)O)NC(=O)[C@H](CO)NC(=O)[C@@H](NC(=O)[C@@H](N)CO)C(C)C)C(=O)N[C@@H](CCC(N)=O)C(=O)N[C@@H](CC(C)C)C(=O)N[C@@H](CCSC)C(=O)N[C@@H](Cc1cnc[nH]1)C(=O)N[C@@H](CC(N)=O)C(=O)N[C@@H](CC(C)C)C(=O)NCC(=O)N[C@@H](CCCCN)C(=O)N[C@@H](Cc1cnc[nH]1)C(=O)N[C@@H](CC(C)C)C(=O)N[C@@H](CC(N)=O)C(=O)N[C@@H](CO)C(=O)N[C@@H](CCSC)C(=O)N[C@@H](CCC(=O)O)C(=O)N[C@@H](CCCN=C(N)N)C(=O)N[C@H](C(=O)N[C@@H](CCC(=O)O)C(=O)N[C@@H](Cc1c[nH]c2ccccc12)C(=O)N[C@@H](CC(C)C)C(=O)N[C@@H](CCCN=C(N)N)C(=O)N[C@@H](CCCCN)C(=O)N[C@@H](CCCCN)C(=O)N[C@@H](CC(C)C)C(=O)N[C@@H](CCC(N)=O)C(=O)N[C@@H](CC(=O)O)C(=O)N[C@H](C(=O)N[C@@H](Cc1cnc[nH]1)C(=O)N[C@@H](CC(N)=O)C(=O)N[C@@H](Cc1ccccc1)C(=O)O)C(C)C)C(C)C [hPTH (1-34)]
Cmax (individual subjects) ([3]; T-1: 300 micro-channels/cm^2, 2 printed patches each 100 μg (dose 200 ug)): 0.094366 ng/mL and 0.394054 ng/mL and 0.437693 ng/mL and 0.39756 ng/mL | Cmax (individual subjects) ([3]; T-2: 150 micro-channels/cm^2, 2 printed patches each 200 μg (dose 400 ug)): 0.072528 ng/mL and 0.463893 ng/mL and 1.293464 ng/mL and 0.739311 ng/mL | Cmax (individual subjects) ([3]; T-3: 300 micro-channels/cm^2, 2 printed patches each 200 μg (dose 400 ug)): 0.296887 ng/mL and 0.534872 ng/mL and 1.304179 ng/mL and 0.46945 ng/mL | Cmax (individual subjects) ([3]; T-4: SC injection of 20 μg): 0.012196 ng/mL and 0.037556 ng/mL and 0.02935 ng/mL and 0.038062 ng/mL | Cmax (individual subjects) ([3]; T-5: SC injection of 60 μg): 0.059209 ng/mL and 0.066482 ng/mL and 0.185324 ng/mL and 0.13504 ng/mL
